Like-named read-outs stand apart in the source and are kept apart here. Where a SMILES comes first, the peptide text is derived from it. Where no end group is shown, it is not given here. pyridine‑bisazole = not defined here
T1: IRAK4 (Homo sapiens, UniProt Q9NWZ3)
T1 sequence (Q9NWZ3 1-460): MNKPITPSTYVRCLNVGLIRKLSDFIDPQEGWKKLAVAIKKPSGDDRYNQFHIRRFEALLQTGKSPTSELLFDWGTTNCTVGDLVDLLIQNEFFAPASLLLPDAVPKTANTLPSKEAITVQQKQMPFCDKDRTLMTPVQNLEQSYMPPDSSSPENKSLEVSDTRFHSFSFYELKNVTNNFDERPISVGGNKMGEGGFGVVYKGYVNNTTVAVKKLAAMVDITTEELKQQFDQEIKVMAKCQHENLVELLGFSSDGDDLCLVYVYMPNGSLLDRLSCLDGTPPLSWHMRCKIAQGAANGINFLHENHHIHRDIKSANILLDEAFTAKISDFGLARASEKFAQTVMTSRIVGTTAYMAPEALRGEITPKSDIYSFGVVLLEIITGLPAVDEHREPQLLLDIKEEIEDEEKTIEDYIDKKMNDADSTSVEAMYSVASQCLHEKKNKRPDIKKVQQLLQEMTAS

T2: Biotinylated IRAK4 (kinase domain, amino acids 1-460; NP_057207.2) (Homo sapiens, UniProt Q9NWZ3)
T2 construct: acids 1-460; NP_057207.2) was purchased from Carna Biosciences; purchased Carna Biosciences (Kobe, Japan)
T2 sequence (Q9NWZ3 1-460): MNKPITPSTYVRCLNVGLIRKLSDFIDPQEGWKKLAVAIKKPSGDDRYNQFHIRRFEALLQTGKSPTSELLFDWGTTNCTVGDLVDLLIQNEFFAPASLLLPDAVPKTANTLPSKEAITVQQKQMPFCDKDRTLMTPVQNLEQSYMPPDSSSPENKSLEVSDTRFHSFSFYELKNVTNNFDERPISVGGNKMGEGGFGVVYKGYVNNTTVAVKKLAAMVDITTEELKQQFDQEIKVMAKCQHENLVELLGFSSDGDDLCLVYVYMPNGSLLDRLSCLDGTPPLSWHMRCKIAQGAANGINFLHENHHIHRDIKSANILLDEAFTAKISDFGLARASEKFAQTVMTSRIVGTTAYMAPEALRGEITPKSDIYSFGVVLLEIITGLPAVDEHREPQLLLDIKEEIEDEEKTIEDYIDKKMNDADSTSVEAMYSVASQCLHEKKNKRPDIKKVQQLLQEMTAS

T3: interleukin-1 receptor-associated kinase 4 (UniProt Q9NWZ3 1-460)
T3 construct: interleukin-1 receptor-associated kinase 4 (IRAK4); Immobilised on magnetic beads in the mRNA display experiments; also called IRAK4; IRAK4 kinase
T3 sequence (looked up): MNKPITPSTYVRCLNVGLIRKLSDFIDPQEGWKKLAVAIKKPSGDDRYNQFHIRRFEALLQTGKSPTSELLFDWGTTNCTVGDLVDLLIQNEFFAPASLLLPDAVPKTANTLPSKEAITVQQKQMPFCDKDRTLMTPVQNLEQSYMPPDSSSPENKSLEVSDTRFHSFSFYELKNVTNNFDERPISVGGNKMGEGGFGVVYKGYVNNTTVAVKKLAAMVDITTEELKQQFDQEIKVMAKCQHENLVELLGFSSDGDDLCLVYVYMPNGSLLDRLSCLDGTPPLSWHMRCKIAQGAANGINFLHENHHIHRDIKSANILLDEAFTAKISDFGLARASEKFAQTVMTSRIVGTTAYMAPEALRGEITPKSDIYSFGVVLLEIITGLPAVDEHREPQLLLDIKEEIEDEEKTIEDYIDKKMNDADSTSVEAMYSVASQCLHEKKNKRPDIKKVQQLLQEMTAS

T4: toll-like receptor 10, extracellular domain (UniProt Q9BXR5 20-576)
T4 construct: toll-like receptor 10 (TLR10), extracellular domain; The extracellular domain is stated for the SPR experiment; also called TLR10; TLR10 cell surface receptor
T4 sequence (looked up): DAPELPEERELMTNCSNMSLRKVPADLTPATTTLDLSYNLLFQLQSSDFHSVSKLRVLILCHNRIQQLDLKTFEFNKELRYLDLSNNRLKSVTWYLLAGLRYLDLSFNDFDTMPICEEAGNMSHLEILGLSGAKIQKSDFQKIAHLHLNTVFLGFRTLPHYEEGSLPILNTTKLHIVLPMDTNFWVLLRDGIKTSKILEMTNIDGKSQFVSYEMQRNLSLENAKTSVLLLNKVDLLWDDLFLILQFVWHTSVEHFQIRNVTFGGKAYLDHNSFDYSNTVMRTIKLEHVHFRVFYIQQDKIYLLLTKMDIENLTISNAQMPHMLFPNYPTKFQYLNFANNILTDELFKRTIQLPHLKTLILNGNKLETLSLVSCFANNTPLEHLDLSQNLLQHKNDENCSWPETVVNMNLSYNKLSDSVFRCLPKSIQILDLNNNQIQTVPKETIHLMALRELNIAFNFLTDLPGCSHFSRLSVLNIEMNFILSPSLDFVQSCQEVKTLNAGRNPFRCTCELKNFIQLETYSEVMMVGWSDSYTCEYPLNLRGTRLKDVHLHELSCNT


How the values were obtained:
IRAK4 [1] = biological target: T1, IRAK4; test: mRNA display affinity selection against IRAK4, NGS abundance; format: binding; set-up: acids 1-460; NP_057207.2) was purchased from Carna Biosciences; purchased Carna Biosciences (Kobe, Japan); conditions: IRAK4 selection, NGS abundance rank
[2] = tested on: lipopolysaccharide-induced NF-κB signaling in THP1-XBlue cells; test: NF-kB signaling pathway inhibition assay (SEAP reporter, LPS-stimulated); format: cell-based; conditions: THP1-XBlue monocytes, 6 h pre-treatment, LPS-EK 30 ng/mL, SEAP read 20 h after induction
Protocol: (§1) 2.13. NF-kB signaling pathway inhibition assay
(§2) THP-1 Cellular Assay. THP1-XBlue cells containing an NF-kB-inducible secreted embryonic alkaline phosphatase (SEAP) reporter gene (InvivoGen) were seeded to 96-well assay plates (10^5 cells/well) with RPMI 1640 culture medium containing 10% fetal calf serum. The cells were pre-treated with various concentration of analyte thiopeptide inhibitor in 0.1% DMSO and incubated at 37 °C for 6 h. LPS-EK (30 ng/mL, InvivoGen) was subsequently added to activate the NF-kB signalling for 20 h. To quantitate SEAP activity, supernatants were harvested (300 g, 5min) and mixed with Quanti-Blue (InvivoGen) detection reagent following the manufacturer’s instructions.
(§3) Cells were assayed with cell counting kit-8 in parallel to rule out potential cytotoxicity. The plates

IRAK4 [3] = biological target: T1, IRAK4; test: Single-round mRNA display binding assay (qPCR), IRAK4; set-up: acids 1-460; NP_057207.2) was purchased from Carna Biosciences; purchased Carna Biosciences (Kobe, Japan); conditions: ratio of cDNA recoveries (qPCR), IRAK4 pulldown over beads only, single-round selection
[4] = biological target: T2, Biotinylated IRAK4 (kinase domain, amino acids 1-460; NP_057207.2); test: Surface plasmon resonance binding to IRAK4
Source text: Reagents were purchased from Nacalai Tesque, Wako Pure Chemical Industries, Sigma-Aldrich Japan, or TCI Chemicals and were used as received. Biotinylated IRAK4 (kinase domain, amino acids 1-460; NP_057207.2) was purchased from Carna Biosciences (Kobe, Japan). Recombinant human TLR10 Fc Chimera protein (extracellular domain, amino acid 20-576; Q9BXR5) was purchased from R&D system (#6619-TR-050). Anti-HA magnetic beads were from Pierce Thermo Fisher Scientific (#88836). Magnetic beads with immobilized streptavidin were from Invitrogen (Dynabeads Streptavidin C1, # 65001). Magnetic beads with immobilized streptavidin were from Invitrogen (Dynabeads Streptavidin M280, #11206D).
Protein purification and synthesis of Streptomyces lactacystinaeus tRNAGlu were done as previously described.1–3 Protein concentration measurements were carried out on a Nanodrop 2000c spectrophotometer (Thermo Scientific) equipped with a 5 mm pathlength quartz cuvette using extinction coefficient values calculated with ExPASy ProtParam tool (https://web.expasy.org/protparam).
Biochemical measurements (sections 2.10 – 2.14) were performed in triplicate or more. Most experiments were reproduced to an analogous outcome at least once. In the cases where the determination of biophysical parameters involved cell assay (CP50 and IC50), reported are standard errors of the fit; otherwise, error bars are standard deviations.
RNA extracted from the gel with 300 mM NaCl were collected by ethanol precipitation followed by centrifugation (15300 g for 15 min) and dissolved in water for storage. tRNAini was aminoacylated with eFx using biotin-Phe-CME as a substrate. tRNAini (25 µM) and eFx (25 µM) were incubated with biotin-Phe-CME (5 mM) in HEPES-KOH buffer (50 mM; pH 7.5) containing 600 mM MgCl2 on ice for 2 h. The reactions were stopped with the addition of 300 mM NaOAc (pH 5.2), and precipitated with ethanol. Precipitated RNA was recovered by centrifugation (15300 g for 15 min). The pellet was washed with 70% ethanol in water (v/v) containing 100 mM NaOAc (pH 5.2) and used in translation.
2.10. Surface plasmon resonance
Binding affinities between the thiopeptides and IRAK4/TLR10 were measured with a Biacore 8K instrument (GE Healthcare) at 25 °C. The assay buffer for IRAK4 binding analysis contained 50 mM Tris (pH 7.5), 150 mM NaCl, 10 mM MgCl2, 0.05% (v/v) tween-20 and 0.1% (v/v) DMSO. The […]
Biotinylated IRAK4 was immobilized on a Biacore CAP chip (GE Healthcare) to a surface density […]
step was allowed to proceed for 480 s. Kinetic parameters and affinities of the interaction were […]
provided by the manufacturer. The interaction sensorgrams were measured as single -cycle […]
Kinetic parameters and affinities of the
Evaluation Software v.3.0 (GE Healthcare).

IRAK4 [5] = biological target: T1, IRAK4; test: biochemical
[6] = tested on: HaloTag expressing HEK293H cells; test: Chloroalkane penetration assay (CAPA); conditions: 18 h, chloroalkane tag-containing derivatives IR1-ct and IR5-ct
Source text: The role of IRAK4 as a kinase acting downstream of TLR and interleukin-1 receptors to phosphorylate IRAK1 and transduce immunological signals is well-established.[37] […] Therefore, we investigated the inhibitory activity of thiopeptides IR1, 5, 8, and 11. […] We first prepared chloroalkane tag-containing derivatives, IR1-ct and IR5-ct (S.I. 5.3), and utilized them in a chloroalkane penetration assay[49] to test their cellular uptake. […]

THP1-XBlue cells = test: Cell viability with Cell Counting Kit-8
Protocol: as §1, §2, §3

Serum stability assay = format: in vitro ADME; conditions: pH 7.6; human serum, 37 °C, LC/MS; read-out: serum stability τ1/2 (converted)
[7] = biological target: T3, interleukin-1 receptor-associated …; test: SPR; synthetic thiopeptides and target protein; conditions in S.I. 2.10 (not shown); conditions: both partners purified
[8] = biological target: T3, interleukin-1 receptor-associated …; test: cell-based or functional assay
[9] = biological target: T4, toll-like receptor 10, extracellular …; test: SPR; synthetic thiopeptides and target protein; conditions in S.I. 2.10 (not shown); conditions: both partners purified

Molecule	rank in pulldown(+) (IRAK4 [1])	rank in pulldown(–) (IRAK4 [1])	IC50 [2] [µM]	display P/N ratio (IRAK4 [3])	koff [4] [s⁻¹]	kon [4] [M⁻¹ s⁻¹]	IC50 (IRAK4 [5]) [µM]	CP50 (midpoint internalization concentration) [6] [µM]	cytotoxicity (Cell Counting Kit-8) (THP1-XBlue cells)	half-life at 10 µM (Serum stability assay) [h]	koff ([4]; SPR, IRAK4, read-out: koff) [s⁻¹]	kon ([4]; SPR, IRAK4, read-out: kon) [M⁻¹ s⁻¹]	cytotoxicity (Cell Counting Kit-8) (THP1-XBlue cells; at the tested concentrations)	Kd [7] [µM]	IC50, lipopolysaccharide-induced NF-κB signaling (secreted alkaline phosphatase reporter) in THP1-XBlue monocytes [8] [µM]	Kd [9] [µM]
C=C1NC(=O)C(=CC)NC(=O)[C@H](Cc2c[nH]c3ccccc23)NC(=O)[C@H](Cc2c[nH]cn2)NC(=O)[C@H](Cc2c[nH]c3ccccc23)NC(=O)[C@H]([C@@H](C)O)NC(=O)[C@H]([C@@H](C)CC)NC(=O)[C@H](Cc2ccccc2)NC(=O)[C@H](CCC(N)=O)NC(=O)[C@H](CCCNC(=N)N)NC(=O)[C@H](CCCCN)NC(=O)[C@H](CCCC)NC(=O)[C@H](CO)NC(=O)[C@H](Cc2c[nH]c3ccccc23)NC(=O)c2ccc(-c3nc(C(=O)OC)cs3)nc2-c2csc1n2 [IR1] (HELM PEPTIDE1{W.S.[Nle].K.R.Q.F.I.T.W.H.W.[CC=C(N[*:1])C(=O)[*:2]]}|CHEM1{[C=C(N[*:2])c1nc(-c2nc(-c3nc(C(=O)OC)cs3)ccc2C(=O)[*:1])cs1]}$PEPTIDE1,CHEM1,1:R1-1:R1|PEPTIDE1,CHEM1,13:R2-1:R2$$$V2.0; bridges inferred)	3	1	7	1829	0.00054	2930	3.1 ± 0.3	2.4	not cytotoxic	3.9 ± 0.1						
C=C1NC(=O)[C@H](CCCCN)NC(=O)[C@H](Cc2ccc(O)cc2)NC(=O)[C@H]([C@@H](C)CC)NC(=O)[C@H](CCCNC(=N)N)NC(=O)[C@H](CCCNC(=N)N)NC(=O)[C@H](CCCCN)NC(=O)[C@H](Cc2ccccc2)NC(=O)[C@H](CC(C)C)NC(=O)[C@H](CCSC)NC(=O)[C@H](CO)NC(=O)[C@H](Cc2c[nH]c3ccccc23)NC(=O)c2ccc(-c3nc(C(=O)OC)cs3)nc2-c2csc1n2 [IR5] (HELM PEPTIDE1{W.S.M.L.F.K.R.R.I.Y.K}|CHEM1{[C=C(N[*:2])c1nc(-c2nc(-c3nc(C(=O)OC)cs3)ccc2C(=O)[*:1])cs1]}$PEPTIDE1,CHEM1,1:R1-1:R1|PEPTIDE1,CHEM1,11:R2-1:R2$$$V2.0; bridges inferred)	1	2	7.8	376			5.1 ± 0.4	14.8		1.3 ± 0.02	0.0037	2.92e+06	not cytotoxic			
SWSMLFKRRIYKSCSC (bridge (positions not given here) via pyridine‑bisazole; reading uncertain; also: macrocyclic lactazole-like thiopeptide with pyridine-bisazole moiety, places not given here, dehydroamino acids, places not given here) [thiopeptide IR5 (synthetic)]														0.0013	7.8	
SWSLELSRVNVVIHSCSC (bridge (positions not given here) via pyridine‑bisazole; reading uncertain; also: macrocyclic lactazole-like thiopeptide with pyridine-bisazole moiety, places not given here, dehydroamino acids, places not given here) [thiopeptide TL20 (synthetic)]																0.3

Reference: PMC10683472, “Deep Learning-Driven Library Design for the De Novo Discovery of Bioactive Thiopeptides” (ACS Central Science, 2023)
